Laboratory results: ChEMBL document CHEMBL4420076, “Amylin and calcitonin receptor agonist” (2017)
Numbered stars: 1 amine (or outer) side, 2 acyl side, 3 side chain; on linkers, the order of the positions; unused ones are H or OH. Peptide text beside a SMILES is read from it. * marks the point of attachment. C20 diacid = O=C(O)CCCCCCCCCCCCCCCCCCC(=O)*; C18 diacid = O=C(O)CCCCCCCCCCCCCCCCC(=O)*; γGlu = O=C(O)[C@H](CCC(=O)[*:2])N[*:1]

Columns and labels:
[1] = molecular target: T1, Calcitonin receptor (Homo sapiens, UniProt P30988); assay: Agonist activity at human calcitonin receptor expressed in BHK570 cells assessed as increase in intracellular cAMP concentration incubated for 3 hrs in absence of albumin by CRE luciferase reporter gene assay; format: functional, cell-based
T1 sequence (P30988 whole entry): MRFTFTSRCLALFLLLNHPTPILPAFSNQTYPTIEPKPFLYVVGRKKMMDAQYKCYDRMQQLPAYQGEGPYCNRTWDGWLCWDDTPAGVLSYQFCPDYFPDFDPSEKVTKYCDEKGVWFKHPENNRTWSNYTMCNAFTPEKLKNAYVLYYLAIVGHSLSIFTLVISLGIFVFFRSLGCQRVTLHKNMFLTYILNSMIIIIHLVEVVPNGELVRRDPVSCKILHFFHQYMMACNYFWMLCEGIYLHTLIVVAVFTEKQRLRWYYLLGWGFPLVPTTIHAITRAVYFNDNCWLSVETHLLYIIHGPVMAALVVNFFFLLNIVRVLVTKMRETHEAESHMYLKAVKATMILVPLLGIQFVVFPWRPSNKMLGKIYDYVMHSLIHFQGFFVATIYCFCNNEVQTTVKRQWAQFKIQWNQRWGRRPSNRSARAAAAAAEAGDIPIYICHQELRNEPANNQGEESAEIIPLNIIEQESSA

[2] = Solubility in 100 mM glycylglycine buffer at pH 5.0 incubated for 18 hrs by UPLC analysis; format: physicochemical
[3] = Solubility in 100 mM glycylglycine buffer at pH 3.0 incubated for 18 hrs by UPLC analysis; format: physicochemical
[4] = molecular target: T2, Amylin receptor AMY3; CALCR/RAMP3 (Homo sapiens, UniProt O60896+P30988); assay: Agonist activity at human amylin receptor expressed in BHK570 cells co-expressing RAMP3 assessed as increase in intracellular cAMP concentration incubated for 3 hrs in absence of albumin by CRE luciferase reporter gene assay; format: functional, cell-based
T2 sequence (P30988 whole entry): T1 sequence (P30988 whole entry)
T2 sequence (O60896 whole entry): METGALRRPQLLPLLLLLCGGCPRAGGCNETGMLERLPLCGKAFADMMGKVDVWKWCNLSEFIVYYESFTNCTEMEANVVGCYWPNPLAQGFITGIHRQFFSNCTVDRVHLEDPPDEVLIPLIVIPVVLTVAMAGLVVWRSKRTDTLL

[5] = system: Rattus norvegicus; assay: Reduction in food intake in Sprague-Dawley rat at 3 nmol/kg measured 24 to 48 hrs post dose relative to control; format: functional; design: scale not given: the % may be the effect or the level left
[6] = molecular target: T2, Amylin receptor AMY3; CALCR/RAMP3; assay: Displacement of [125I]-labeled rat amylin from human amylin receptor expressed in BHK tkts13 whole cells co-expressing RAMP3 incubated for 60 mins by scintillation proximity assay; format: cell-based
[7] = Solubility in 100 mM bistrispropane buffer at pH 7.5 incubated for 18 hrs by UPLC analysis; format: physicochemical
[8] = Solubility in 100 mM bistrispropane buffer at pH 6.5 incubated for 18 hrs by UPLC analysis; format: physicochemical
[9] = Solubility in 100 mM bistrispropane buffer at pH 7.0 incubated for 18 hrs by UPLC analysis; format: physicochemical
[10] = Solubility in 100 mM bistrispropane buffer at pH 6.0 incubated for 18 hrs by UPLC analysis; format: physicochemical
[11] = Solubility in 100 mM glycylglycine buffer at pH 4.0 incubated for 18 hrs by UPLC analysis; format: physicochemical
[12] = system: Rattus norvegicus; assay: Reduction in food intake in Sprague-Dawley rat at 3 nmol/kg measured 0 to 24 hrs post dose relative to control; format: functional; design: scale not given: the % may be the effect or the level left
[13] = Solubility in 100 mM bistrispropane buffer at pH 8.0 incubated for 18 hrs by UPLC analysis; format: physicochemical
[14] = molecular target: T1, Calcitonin receptor; assay: Agonist activity at human calcitonin receptor expressed in BHK570 cells assessed as increase in intracellular cAMP concentration incubated for 3 hrs in presence of 10% FBS by CRE luciferase reporter gene assay; format: functional, cell-based
[15] = molecular target: T2, Amylin receptor AMY3; CALCR/RAMP3; assay: Agonist activity at human amylin receptor expressed in BHK570 cells co-expressing RAMP3 assessed as increase in intracellular cAMP concentration incubated for 3 hrs in presence of 10% FBS by CRE luciferase reporter gene assay; format: functional, cell-based

SMILES	EC50 [1] [nM]	solubility at 18 h [2] [µM]	solubility at 18 h [3] [µM]	EC50 [4] [nM]	IC50 [6] [nM]	solubility at 18 h [7] [µM]	solubility at 18 h [8] [µM]	solubility at 18 h [9] [µM]	solubility at 18 h [10] [µM]	solubility at 18 h [11] [µM]	solubility at 18 h [13] [µM]	EC50 [14] [nM]	EC50 [15] [nM]	Activity [5] [%]	Activity [12] [%]
CC(C)C[C@H](NC(=O)[C@H](C)NC(=O)[C@H](C)NC(=O)[C@@H](NC(=O)[C@H](CO)NC(=O)[C@H](CC(C)C)NC(=O)[C@H](CCC(=O)O)NC(=O)[C@H](CO)NC(=O)[C@H](C)NC(=O)[C@H](CCC(=O)O)NC(=O)CCCCCCCCCCCCCCCCC(=O)O)[C@@H](C)O)C(=O)NCC(=O)N[C@@H](CCCNC(=N)N)C(=O)N[C@@H](CC(C)C)C(=O)N[C@@H](CO)C(=O)N[C@@H](C)C(=O)N[C@@H](CCC(=O)O)C(=O)N[C@@H](CC(C)C)C(=O)N[C@@H](C)C(=O)N[C@@H](CCC(=O)O)C(=O)N[C@@H](CC(C)C)C(=O)N[C@@H](C)C(=O)N[C@H](C(=O)N[C@@H](CC(C)C)C(=O)N1CCC[C@H]1C(=O)N[C@@H](CCCNC(=N)N)C(=O)N[C@H](C(=O)N[C@@H](CCC(=O)O)C(=O)N[C@H](C(=O)NCC(=O)N1CCC[C@H]1C(=O)N[C@@H](CCC(=O)O)C(=O)N[C@@H](CO)C(=O)N1CCC[C@H]1C(N)=O)[C@@H](C)O)[C@@H](C)O)[C@@H](C)O ({C18 diacid}-EASELSTAALGRLSAELAELATLPRTETGPESP-NH2)	0.003	≥ 200	≥ 200	0.004	0.329	≥ 200	≥ 200	≥ 200	≥ 200	≥ 200	≥ 200	–	–	18	70
CC(C)C[C@H](NC(=O)[C@H](CCC(=O)O)NC(=O)[C@H](Cc1cnc[nH]1)NC(=O)[C@H](CC(C)C)NC(=O)[C@H](CCC(=O)O)NC(=O)[C@H](C)NC(=O)[C@H](CO)NC(=O)[C@H](CC(C)C)NC(=O)[C@H](CCCNC(=N)N)NC(=O)CNC(=O)[C@H](CC(C)C)NC(=O)[C@@H](NC(=O)[C@H](C)NC(=O)[C@@H](NC(=O)[C@H](CO)NC(=O)[C@H](CC(C)C)NC(=O)[C@H](CCC(=O)O)NC(=O)[C@H](CO)NC(=O)[C@H](C)NC(=O)[C@H](CCC(=O)O)NC(=O)CCCCCCCCCCCCCCCCC(=O)O)[C@@H](C)O)C(C)C)C(=O)N[C@@H](C)C(=O)N[C@H](C(=O)N[C@@H](CC(C)C)C(=O)N1CCC[C@H]1C(=O)N[C@@H](CCCNC(=N)N)C(=O)N[C@H](C(=O)N[C@@H](CCC(=O)O)C(=O)N[C@H](C(=O)NCC(=O)N1CCC[C@H]1C(=O)N[C@@H](CCC(=O)O)C(=O)N[C@@H](CO)C(=O)N1CCC[C@H]1C(N)=O)[C@@H](C)O)[C@@H](C)O)[C@@H](C)O ({C18 diacid}-EASELSTAVLGRLSAELHELATLPRTETGPESP-NH2)	0.009	≥ 200	≥ 200	0.012	0.796	≥ 200	≥ 200	≥ 200	≥ 200	≥ 200	≥ 200	–	–	39	58.5
CC(C)C[C@H](NC(=O)CNC(=O)[C@H](CO)NC(=O)[C@H](C)NC(=O)CC[C@H](NC(=O)CCCCCCCCCCCCCCCCCCC(=O)O)C(=O)O)C(=O)N[C@@H](CO)C(=O)N[C@H](C(=O)N[C@@H](C)C(=O)N[C@@H](C)C(=O)N[C@@H](CC(C)C)C(=O)NCC(=O)N[C@@H](CCCNC(=N)N)C(=O)N[C@@H](CC(C)C)C(=O)N[C@@H](CO)C(=O)N[C@@H](CCC(=O)O)C(=O)N[C@@H](CCC(=O)O)C(=O)N[C@@H](CC(C)C)C(=O)N[C@@H](Cc1cnc[nH]1)C(=O)N[C@@H](CCC(=O)O)C(=O)N[C@@H](CC(C)C)C(=O)N[C@@H](CCC(N)=O)C(=O)N[C@H](C(=O)N[C@@H](Cc1ccc(O)cc1)C(=O)N1CCC[C@H]1C(=O)N[C@@H](CCCNC(=N)N)C(=O)N[C@H](C(=O)N[C@@H](CCC(=O)O)C(=O)N[C@H](C(=O)NCC(=O)N[C@@H](CO)C(=O)NCC(=O)N[C@H](C(=O)N[C@@H](Cc1ccc(O)cc1)C(N)=O)[C@@H](C)O)[C@@H](C)O)[C@@H](C)O)[C@@H](C)O)[C@@H](C)O ({C20 diacid-γGlu}-ASGLSTAALGRLSEELHELQTYPRTETGSGTY-NH2)	0.021	–	≥ 200	0.036	–	≥ 200	≥ 200	≥ 200	≥ 200	–	≥ 200	0.057	0.159	6	21

More lines, in order of falling EC50 [1], values ahead:

EC50 [1] [nM]	solubility at 18 h [2] [µM]	solubility at 18 h [3] [µM]	EC50 [4] [nM]	IC50 [6] [nM]	solubility at 18 h [7] [µM]	solubility at 18 h [8] [µM]	solubility at 18 h [9] [µM]	solubility at 18 h [10] [µM]	solubility at 18 h [11] [µM]	solubility at 18 h [13] [µM]	EC50 [14] [nM]	EC50 [15] [nM]	SMILES	Activity [5] [%]	Activity [12] [%]
0.007	≥ 200	≥ 200	0.008	0.375	≥ 200	≥ 200	≥ 200	≥ 200	≥ 200	≥ 200	–	–	CC(C)C[C@H](NC(=O)[C@H](CCC(=O)O)NC(=O)[C@H](Cc1cnc[nH]1)NC(=O)[C@H](CC(C)C)NC(=O)[C@H](CCC(=O)O)NC(=O)[C@H](C)NC(=O)[C@H](CO)NC(=O)[C@H](CC(C)C)NC(=O)[C@H](CCCNC(=N)N)NC(=O)CNC(=O)[C@H](CC(C)C)NC(=O)[C@@H](NC(=O)[C@H](C)NC(=O)[C@@H](NC(=O)[C@H](CO)NC(=O)[C@H](CC(C)C)NC(=O)[C@H](CCC(=O)O)NC(=O)[C@H](CO)NC(=O)[C@@H]1CCCN1C(=O)[C@H](CCC(=O)O)NC(=O)CCCCCCCCCCCCCCCCC(=O)O)[C@@H](C)O)C(C)C)C(=O)N[C@@H](C)C(=O)N[C@H](C(=O)N[C@@H](CC(C)C)C(=O)N1CCC[C@H]1C(=O)N[C@@H](CCCNC(=N)N)C(=O)N[C@H](C(=O)N[C@@H](CCC(=O)O)C(=O)N[C@H](C(=O)NCC(=O)N1CCC[C@H]1C(=O)N[C@@H](CCC(=O)O)C(=O)N[C@@H](CO)C(=O)N1CCC[C@H]1C(N)=O)[C@@H](C)O)[C@@H](C)O)[C@@H](C)O ({C18 diacid}-EPSELSTAVLGRLSAELHELATLPRTETGPESP-NH2)	77	84
0.006	≥ 200	≥ 200	0.014	0.383	≥ 200	≥ 200	≥ 200	≥ 200	≥ 200	≥ 200	–	–	CC(C)C[C@H](NC(=O)[C@H](CCC(=O)O)NC(=O)[C@H](Cc1cnc[nH]1)NC(=O)[C@H](CC(C)C)NC(=O)[C@H](CCC(=O)O)NC(=O)[C@H](C)NC(=O)[C@H](CO)NC(=O)[C@H](CC(C)C)NC(=O)[C@H](CCCNC(=N)N)NC(=O)CNC(=O)[C@H](CC(C)C)NC(=O)[C@@H](NC(=O)[C@H](C)NC(=O)[C@@H](NC(=O)[C@H](CO)NC(=O)[C@H](CC(C)C)NC(=O)[C@H](CCC(=O)O)NC(=O)[C@H](CO)NC(=O)[C@H](C)NC(=O)[C@H](CCC(=O)O)NC(=O)CCCCCCCCCCCCCCCCC(=O)O)[C@@H](C)O)C(C)C)C(=O)N[C@@H](C)C(=O)N[C@H](C(=O)N[C@@H](CC(C)C)C(=O)N1CCC[C@H]1C(=O)N1CCC[C@H]1C(=O)N[C@H](C(=O)N[C@@H](CCC(=O)O)C(=O)N[C@H](C(=O)NCC(=O)N1CCC[C@H]1C(=O)N[C@@H](CCC(=O)O)C(=O)N[C@@H](CO)C(=O)N1CCC[C@H]1C(N)=O)[C@@H](C)O)[C@@H](C)O)[C@@H](C)O ({C18 diacid}-EASELSTAVLGRLSAELHELATLPPTETGPESP-NH2)	12	62
